Reference: US20110105493A1, “HETEROCYCLYL SUBSTITUTED ARYLINDENOPYRIMIDINES AND THEIR USE AS HIGHLY SELECTIVE ADENOSINE A2a RECEPTOR ANTAGONISTS” (priority 2009, published 2011)

What was measured:
[1] = molecular target: T1, human adenosine A2A receptor (Homo sapiens, UniProt P29274); experiment: Adenosine A2A Receptor Functional Assay (A2A GAL2); format: cell-based; conditions: for IC50: CHO-K1 cells overexpressing human A2A receptor, cAMP inducible beta-galactosidase reporter, 15 nM NECA agonist challenge, read-out: A2AGal2; for A1/A2A: ratio of A1Gal2 to A2AGal2 values
T1 construct: expressed in transfected cells; host or cells: CHO-K1 cells with a cAMP inducible beta-galactosidase reporter gene
T1 sequence (P29274 whole entry): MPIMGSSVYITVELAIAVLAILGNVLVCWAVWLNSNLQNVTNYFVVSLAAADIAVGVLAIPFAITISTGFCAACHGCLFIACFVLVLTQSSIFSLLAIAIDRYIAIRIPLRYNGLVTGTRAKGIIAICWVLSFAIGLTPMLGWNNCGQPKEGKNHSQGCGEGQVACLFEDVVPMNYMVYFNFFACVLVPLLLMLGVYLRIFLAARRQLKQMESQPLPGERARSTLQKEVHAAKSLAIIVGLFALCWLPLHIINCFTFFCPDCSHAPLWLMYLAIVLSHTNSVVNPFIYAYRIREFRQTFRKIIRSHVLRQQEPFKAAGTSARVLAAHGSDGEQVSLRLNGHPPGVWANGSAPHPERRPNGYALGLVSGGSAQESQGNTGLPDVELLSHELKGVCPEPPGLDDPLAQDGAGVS
Protocol: Adenosine A2A Receptor Functional Assay (A2A GAL2)
To initiate the functional assay, cryopreserved CHO—K1 cells overexpressing the human adenosine A2A receptor and containing a cAMP inducible beta-galactosidase reporter gene were thawed, centrifuged, DMSO containing media removed, and then seeded with fresh culture media into clear 384-well tissue culture treated plates (BD #353961) at a concentration of 10K cells/well. Prior to assay, these plates were cultured for two days at 37° C., 5% CO2, 90% Rh. On the day of the functional assay, culture media was removed and replaced with 45 μL assay medium (Hams/F-12 Modified (Mediatech # 10-080CV) supplemented w/0.1% BSA). Test compounds were diluted and 11 point curves created at a 1000× concentration in 100% DMSO. Immediately after addition of assay media to the cell plates, 50 nL of the appropriate test compound antagonist or agonist control curves were added to cell plates using a Cartesian Hummingbird. Compound curves were allowed to incubate at room temperature on cell plates for approximately 15 minutes before addition of a 15 nM NECA (Sigma E2387) agonist challenge (5 μL volume). A control curve of NECA, a DMSO/Media control, and a single dose of Forskolin (Sigma F3917) were also included on each plate. After additions, cell plates were allowed to incubate at 37° C., 5% CO2, 90% Rh for 5.5-6 hours. After incubation, media were removed, and cell plates were washed 1×50 μL with DPBS w/o Ca & Mg (Mediatech 21-031-CV). Into dry wells, 20 μL of 1×Reporter Lysis Buffer (Promega E3971 (diluted in dH2O from 5× stock)) was added to each well and plates frozen at −20° C. overnight. For β-galactosidase enzyme colorimetric assay, plates were thawed out at room temperature and 20 μL 2× assay buffer (Promega) was added to each well. Color was allowed to develop at 37° C., 5% CO2, 90% Rh for 1-1.5 h or until reasonable signal appeared. The colorimetric reaction was stopped with the addition of 60 μL/well 1M sodium carbonate. Plates were counted at 405 nm on a SpectraMax Microplate Reader (Molecular Devices). Data was analyzed in Microsoft Excel and IC/EC50 curves were fit using a standardized macro.

[2] = molecular target: T2, human adenosine A1 receptor (Homo sapiens, UniProt P30542); experiment: Adenosine A1 Receptor Functional Assay (A1GAL2); format: cell-based; conditions: CHO-K1 cells overexpressing human A1 receptor, cAMP inducible beta-galactosidase reporter, 4 nM r-PIA/1 uM Forskolin agonist challenge
T2 construct: expressed in transfected cells; host or cells: CHO-K1 cells with a cAMP inducible beta-galactosidase reporter gene
T2 sequence (P30542 1-326): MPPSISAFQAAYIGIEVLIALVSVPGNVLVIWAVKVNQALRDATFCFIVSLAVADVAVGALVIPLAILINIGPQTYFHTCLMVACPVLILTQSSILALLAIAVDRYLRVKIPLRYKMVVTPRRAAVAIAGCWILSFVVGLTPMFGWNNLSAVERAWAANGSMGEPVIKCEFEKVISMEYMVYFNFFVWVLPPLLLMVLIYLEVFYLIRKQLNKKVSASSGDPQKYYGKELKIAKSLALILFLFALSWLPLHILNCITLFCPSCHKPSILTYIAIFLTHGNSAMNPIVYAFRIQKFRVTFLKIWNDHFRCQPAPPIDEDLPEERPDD
Protocol: Adenosine A1 Receptor Functional Assay (A1GAL2)
To initiate the functional assay, cryopreserved CHO—K1 cells overexpressing the human adenosine A1 receptor and containing a cAMP inducible beta-galactosidase reporter gene were thawed, centrifuged, DMSO containing media removed, and then seeded with fresh culture media into clear 384-well tissue culture treated plates (BD #353961) at a concentration of 10K cells/well. Prior to assay, these plates were cultured for two days at 37° C., 5% CO2, 90% Rh. On the day of the functional assay, culture media was removed and replaced with 45 μL assay medium (Hams/F-12 Modified (Mediatech # 10-080CV) supplemented w/0.1% BSA). Test compounds were diluted and 11 point curves created at a 1000× concentration in 100% DMSO. Immediately after addition of assay media to the cell plates, 50 nL of the appropriate test compound antagonist or agonist control curves were added to cell plates using a Cartesian Hummingbird. Compound curves were allowed to incubate at room temperature on cell plates for approximately 15 minutes before addition of a 4 nM r-PIA (Sigma P4532)/1 uM Forskolin (Sigma F3917) agonist challenge (5 μL volume). A control curve of r-PIA in1 uM Forskolin, a DMSO/Media control, and a single dose of Forskolin were also included on each plate. After additions, cell plates were allowed to incubate at 37° C., 5% CO2, 90% Rh for 5.5-6 hours. After incubation, media was removed, and cell plates were washed 1×50 μL with DPBS w/o Ca & Mg (Mediatech 21-031-CV). Into dry wells, 20 μL of 1×Reporter Lysis Buffer (Promega E3971 (diluted in dH2O from 5× stock)) was added to each well and plates frozen at −20° C. overnight. For β-galactosidase enzyme colorimetric assay, plates were thawed out at room temperature and 20 μL 2×assay buffer (Promega) was added to each well. Color was allowed to develop at 37° C., 5% CO2, 90% Rh for 1-1.5 h or until reasonable signal appeared. The colorimetric reaction was stopped with the addition of 60 μL/well 1M sodium carbonate. Plates were counted at 405 nm on a SpectraMax Microplate Reader (Molecular Devices). Data was analyzed in Microsoft Excel and IC/EC50 curves were fit using a standardized macro.

IC50 [1] [nM]	A1/A2A [1]	IC50 [2] [nM]	Compound
0.6	51.6667	31	Nc1nc(-c2ccccc2)c2c(n1)-c1c(cccc1N1CCN(c3cccnc3)CC1)C2=O [Example 26, 2-Amino-4-phenyl-9-(4-pyridin-3-yl-piperazin-1-yl)-indeno[1,2-d]pyrimidin-5-one]
8.1	765.432	6200	Nc1nc(-c2ccccc2)c2c(n1)-c1c(cccc1N1CCN(c3ccc(C(F)(F)F)cc3)CC1)C2=O [Example 9, 2-Amino-4-phenyl-9-[4-(4-trifluoromethyl-phenyl)-piperazin-1-yl]-indeno[1,2-d]pyrimidin-5-one]
2.6	730.769	1900	Nc1nc(-c2ccccc2)c2c(n1)-c1c(cccc1N1CCN(c3ncccc3F)CC1)C2=O [Example 10, 2-Amino-9-[4-(3-fluoro-pyridin-2-yl)-piperazin-1-yl]-4-phenyl-indeno[1,2-d]pyrimidin-5-one]
1.4	142.857	200	Nc1nc(-c2ccccc2)c2c(n1)-c1c(cccc1N1CCN(c3ccccn3)CC1)C2=O [Example 17, 2-Amino-4-phenyl-9-(4-pyridin-2-yl-piperazin-1-yl)-indeno[1,2-d]pyrimidin-5-one]
0.49	1530.61	750	COCCOc1ccc(N2CCN(c3cccc4c3-c3nc(N)nc(-c5ccccc5)c3C4=O)CC2)c(F)c1 [Example 5, 2-Amino-9-{4-[2-fluoro-4-(2-methoxy-ethoxy)-phenyl]-piperazin-1-yl}-4-phenyl-indeno[1,2-d]pyrimidin-5-one]
1.5	100	150	NC(=O)c1ccc(C2CCN(c3cccc4c3-c3nc(N)nc(-c5ccccc5)c3C4=O)CC2)cc1 [Example 20, 4-[1-(2-Amino-5-oxo-4-phenyl-5H-indeno[1,2-d]pyrimidin-9-yl)-piperidin-4-yl]-benzamide]
0.36	694.444	250	COCCOc1ccc(N2CCN(c3cccc4c3-c3nc(N)nc(-c5ccccc5)c3C4=O)CC2)cc1 [Example 11, 2-Amino-9-{4-[4-(2-methoxy-ethoxy)-phenyl]-piperazin-1-yl}-4-phenyl-indeno[1,2-d]pyrimidin-5-one]
3.2	437.5	1400	N#Cc1cccnc1N1CCN(c2cccc3c2-c2nc(N)nc(-c4ccccc4)c2C3=O)CC1 [Example 14, 2-[4-(2-Amino-5-oxo-4-phenyl-5H-indeno[1,2-d]pyrimidin-9-yl)-piperazin-1-yl]-nicotinonitrile]
2.7	1074.07	2900	N#Cc1ccccc1N1CCN(c2cccc3c2-c2nc(N)nc(-c4ccccc4)c2C3=O)CC1 [Example 7, 2-[4-(2-Amino-5-oxo-4-phenyl-5H-indeno[1,2-d]pyrimidin-9-yl)-piperazin-1-yl]-benzonitrile]
1.6	5937.5	9500	Nc1nc(-c2ccccc2)c2c(n1)-c1c(cccc1N1CCN(c3ccc(F)cn3)CC1)C2=O [Example 2, 2-Amino-9-[4-(5-fluoro-pyridin-2-yl)-piperazin-1-yl]-4-phenyl-indeno[1,2-d]pyrimidin-5-one]
0.14	178.571	25	COc1ccc(N2CCN(c3cccc4c3-c3nc(N)nc(-c5ccccc5)c3C4=O)CC2)cc1 [Example 16, 2-Amino-9-[4-(4-methoxy-phenyl)-piperazin-1-yl]-4-phenyl-indeno[1,2-d]pyrimidin-5-one]
2.27	463.233	1050	Nc1nc(-c2ccccc2)c2c(n1)-c1c(cccc1N1CCN(CCc3ccccc3)CC1)C2=O [Example 12, 2-Amino-9-(4-phenethyl-piperazin-1-yl)-4-phenyl-indeno[1,2-d]pyrimidin-5-one]
1.2	1583.33	1900	Nc1nc(-c2ccccc2)c2c(n1)-c1c(cccc1N1CCN(c3ccccc3F)CC1)C2=O [Example 4, 2-Amino-9-[4-(2-fluoro-phenyl)-piperazin-1-yl]-4-phenyl-indeno[1,2-d]pyrimidin-5-one]
4.2	52.381	220	CC(=O)C1(c2ccccc2)CCN(c2cccc3c2-c2nc(N)nc(-c4ccccc4)c2C3=O)CC1 [Example 25, 9-(4-Acetyl-4-phenyl-piperidin-1-yl)-2-amino-4-phenyl-indeno[1,2-d]pyrimidin-5-one]
2.6	1115.38	2900	Nc1nc(-c2ccccc2)c2c(n1)-c1c(cccc1N1CCN(c3ccc(F)cc3F)CC1)C2=O [Example 6, 2-Amino-9-[4-(2,4-difluoro-phenyl)-piperazin-1-yl]-4-phenyl-indeno[1,2-d]pyrimidin-5-one]
0.2	20250	4050	CC(=O)c1ccc(N2CCN(c3cccc4c3-c3nc(N)nc(-c5ccccc5)c3C4=O)CC2)cc1 [Example 1, 9-[4-(4-Acetyl-phenyl)-piperazin-1-yl]-2-amino-4-phenyl-indeno[1,2-d]pyrimidin-5-one]
4.7	57.4468	270	Nc1nc(-c2ccccc2)c2c(n1)-c1c(cccc1N1CCC(N3CCOCC3)CC1)C2=O [Example 24, 2-Amino-9-(4-morpholin-4-yl-piperidin-1-yl)-4-phenyl-indeno[1,2-d]pyrimidin-5-one]
0.44	227.273	100	CS(=O)(=O)c1ccc(N2CCN(c3cccc4c3-c3nc(N)nc(-c5ccccc5)c3C4=O)CC2)cc1 [Example 15, 2-Amino-9-[4-(4-methanesulfonyl-phenyl)-piperazin-1-yl]-4-phenyl-indeno[1,2-d]pyrimidin-5-one]
10.6	77.5711	818	Nc1nc(-c2ccccc2)c2c(n1)-c1c(cccc1N1CCN(CC3CC3)CC1)C2=O [Example 22, 2-Amino-9-(4-cyclopropylmethyl-piperazin-1-yl)-4-phenyl-indeno[1,2-d]pyrimidin-5-one]
1.5	80	120	Nc1nc(-c2ccccc2)c2c(n1)-c1c(cccc1N1CCN(c3ccc(Cl)cc3)CC1)C2=O [Example 21, 2-Amino-9-[4-(4-chloro-phenyl)-piperazin-1-yl]-4-phenyl-indeno[1,2-d]pyrimidin-5-one]
